Each structure is given as a SMILES string.

For data set [1], the target named is T1, Aβ(1-40) (Homo sapiens, UniProt P05067).
T1 construct: Freeze-dried powder of amyloid polypeptide Aβ(1-40) (Invitrogen Corp.); purchased Invitrogen Corp
Nature of the data set: In vitro Aβ aggregation kinetic experiment (ThT fluorescent labeling method). The format is biochemical. The settings on record: ThT fluorescence, 20 μM Aβ(1-40), 37° C., up to 20.0 ppm (L-NIBC 1.0 and 10.0 ppm). An excerpt: Thioflavin T (abbreviation: ThT) is a dye specifically for dyeing amyloid fibers. […] When it encounters amyloid polypeptides or proteins with a fiber structure, it will immediately couple with the amyloid polypeptides or proteins and its fluorescence intensity will increase exponentially. Just because of this property, ThT is widely used as a marker to monitor amyloidosis of peptides or proteins. The fibrosis process of Aβ(1-40) is also a nucleation-controlled polymerization process. Therefore, the growth curve of Aβ(1-40) fiber measured by ThT fluorescent labeling method is mainly divided into three stages: Initial stage, growth stage and platform stage. […] All the Aβ(1-40) PBS solutions for the experiments were prepared freshly. […] The samples were incubated continuously in a 96-well plate at 37° C. by ThT fluorescent labeling method, and monitored the fluorescence intensity by microplate reader once every 10 minutes.

Data set [2] relates to SH-SY5Y neuroblastoma cell line. Kind of data set: Aβ induced AD cell model, cell viability by CCK-8 method. Particulars: 0.01-20 ppm (L-NIBC 20 ppm); 20 μM Aβ(1-40), 24 h. The format is cell-based.
Description: The cell viability was used as an index in the experiment of this embodiment. […] The cells used in the experiment were SH-SY5Y neuroblastoma cell line. […] Specific method:
1) SH-sy5y cells (cells had passed to the sixth generation) in logarithmic growth phase were diluted with complete medium (MEM+10% FBS+1% penicillin-streptomycin) to get a cell suspension in a density of 5×10^4/mL. The suspension was inoculated 200 μL per well into a 96-well plate, and cultivated in an incubator with 5% CO2 at 37° C. A sample was added when the cells attached to the wells.
2) 100 μL ligand-modified AuCs samples or ligand-modified gold nanoparticles samples, at different particle sizes and at concentrations of 0.04 ppm, 0.4 ppm, 4 ppm, 20 ppm, 40 ppm and 80 ppm respectively, which were dissolved by maintenance medium (MEM+2% FBS+1% penicillin-streptomycin) were added into the incubated suspension obtained from Step 1). After incubating in the incubator for 2 h, 100 μL 80 μM Aβ(1-40) was added, and then the mixture was incubated in the incubator for 24 h. […] The culture medium was removed, maintenance medium (MEM) containing 10% CCK-8 at 100 μL/well was added and was incubated for 4 h, the absorbance of each well at 450 nm was measured to reflect the prevention and treatment effects of ligand-modified AuCs on Aβ(1-40) lesion.
A further data set concerns the target T2, α-syn (Homo sapiens, UniProt P37840).
T2 construct: purchased Bachem Corp
Kind of data set: In vitro α-syn aggregation kinetics (ThT fluorescent labeling method). The format is biochemical. Particulars: ligand only (L-NIBC 1.0 and 10.0 ppm), 35 μM α-syn, 37° C. An excerpt: Thioflavin T (abbreviation: ThT) is a dye for dyeing amyloid fibers specifically. […] When it encounters amyloid polypeptide or protein with a fiber structure, it will immediately couple with the amyloid polypeptides or proteins and its fluorescence intensity will increase exponentially. For this reason, ThT is widely used as markers to monitor amyloidosis of peptides or proteins. This embodiment utilizes ThT fluorescent labeling method to monitor the kinetics process of fibrosis aggregation of α-syn with the existence of AuCs. The specific experiment method was as follows:
Pretreatment of α-syn monomers: Freeze-dried powder (Bachem Corp.) of α-syn was dissolved in HFIP to obtain a 1 g/L α-syn solution. The solution was incubated at room temperature for 2-4 h after sealing, then blowed to dry HFIP by high-purity nitrogen in a fume hood. […]
Sample preparation and detection: Ligand-modified AuCs in different concentrations listed in Table 1 were added to 35 μM α-syn PBS solutions respectively, and incubated continuously in a 96-well plate at 37° C., by ThT fluorescent labeling method, and were monitored the fluorescence intensity by microplate reader once every 10 minutes. The kinetic process of α-syn aggregation was characterized through the change of fluorescence intensity of ThT. […]

Data set [3] deals with T1, Aβ(1-40). Nature of the data set: AFM topography of Aβ(1-40) after coincubation for 48 h. Format: biochemical. The settings on record: coincubated with Aβ(1-40) for 48 h. The method, then: Panel A is the AFM topography after Aβ(1-40) was incubated alone for 48 h. Panel B is an AFM topography after Aβ(1-40) was coincubated with L-NIBC for 48 h. Panel C and panel D are AFM topographies after Aβ(1-40) was coincubated with gold nanoparticles with an average particle size of 6.0 nm and 3.6 nm respectively (modified with L-NIBC) for 48 h. And panel E is an AFM topography after Aβ(1-40) was coincubated with AuCs in an average particle size of 1.8 nm (modified with L-NIBC) for 48 h.

In another data set the test system is SH-sy5y cells. Kind of data set: MPP+ induced PD cell (SH-sy5y) model, Experiment 2, CCK-8. Format: cell-based. Particulars: 1 mM MPP^+ and ligand 20 ppm, 24 h; model control 65.1±4.0%.

T1 sequence (P05067 672-711 limits assumed): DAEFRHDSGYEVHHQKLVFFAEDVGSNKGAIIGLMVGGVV

On to `CC(C)C(=O)N[C@@H](CS)C(=O)O` [L-NIBC, N-isobutyryl-L-cysteine], for which, on Aβ(1-40) [1], the “effect on Aβ(1-40) amyloidosis / aggregation kinetics” value is recorded as “no obvious effect”. The “effect on cell viability of Aβ induced AD cell model” value in data set [2] is on record as “did not improve cell viability”. At α-syn, the “effect on kinetics of α-syn aggregation” value is on record as “did not have an obvious effect”. For the same molecule, the “formation of Aβ(1-40) fibers (AFM topography)” value at Aβ(1-40) [3] is on record as “no obvious effect”. The “cell viability of the ligand control group” value in the data set with SH-sy5y cells is given as 61.5±3.8%.

Source of the values: US10729718B2, “Substances containing AuCs and preparation method and use thereof” (Shenzhen Profound-View Pharma Tech Co., Ltd, priority 2016, dated 2020).
